Source: patent publication US9561249B2, “Pharmaceutical formulations of nitrite and uses thereof” (TheraVasc Inc., priority 2013, dated 2017)
Where two headings read alike, the source gives them in different places.

Assays:
subjects with PAD [1] = tested on: subjects with PAD
Procedure: The primary objective of this early stage clinical study was to evaluate the safety and tolerability of multiple doses of twice daily 40 mg and 80 mg sodium nitrite compared with placebo over a 10 week treatment period. […] Finally, the relationship between doses, plasma concentration of sodium nitrite, and pharmacodynamic effects were characterized and evaluated. In this study, multiple assessments of biological activity and ambulatory function were made during standardized tests of arterial reactivity and claudication-limited exercise. The pharmacodynamic assessments included: brachial artery flow-mediated vasodilation (FMD), six-minute walk test, selected biomarkers of interest, quality of life questionnaires (WIQ & RAND 36).
All doses were given as a twice-daily oral dose for 10 weeks. On the day following the 10 week dosing period and completion of efficacy assessments, subjects in each treatment arm entered a 6 day dose-escalation period (dose-doubling). Subjects in the 40 mg sodium nitrite BID group were dose-escalated to 80 mg sodium nitrite BID for 6 days, and subjects in the 80 mg sodium nitrite BID were dose-escalated to 160 mg sodium nitrite BID for 6-days. Placebo subjects doubled the number of placebo capsules taken BID. All study medication was stopped at the end of the 6-day dose-escalation period.
The following safety parameters were assessed: medical and medication history, concomitant medication usage, physical examination, vital signs, 12-lead ECG, clinical chemistries, CBC, urinalysis, and adverse events. Urine pregnancy testing was completed for women of child-bearing potential who have not been surgically sterilized. Assessment of acute adverse events (i.e., drop in blood pressure, dizziness) was performed after administration of 1st dose for each dose level of sodium nitrite. Dose-limiting toxicity (DLT) was defined as Grade 3 and clinically significant hematological events, particularly MetHb.
As defined by the International Conference on Harmonisation (ICH), an AE was any untoward medical occurrence in a patient or clinical investigation subject administered an investigational product, whether or not the event was considered related to the investigational product. An AE was therefore any unfavorable and unintended sign (including an abnormal laboratory finding), symptom, or disease (new or exacerbated) temporally associated with the use of the investigational product and was collected starting when IP was administered.

subjects with PAD [2] = tested on: subjects with PAD; remark: listed apart in the source
Procedure: A resting 12-lead ECG printout with the subject in supine position was obtained at the time points listed in Table 1-Schedule of Assessments. All ECGs were assessed by the PI or qualified designee for clinical significance of any abnormalities or changes and documented on the ECG source document. Any clinically significant abnormalities that occured after the first dose of sodium nitrite was recorded as AEs on the eCRF. The 12-lead ECG was obtained immediately following vitals, with the exception of the Visit 1 Randomization day ECG which was collected prior to dosing.

subjects with PAD [3] = conditions: oral BID for 10 weeks vs placebo
Procedure: Quality of life was measured by two questionnaires: WIQ and RAND 36. The two questionnaires were administered in the same sequence: WIQ first, followed by the RAND 36. The WIQ was a disease-specific instrument that measures community-based walking. The questionnaire consisted of four subscales (pain severity, distance, speed, and stairs). The WIQ was verbally administered to the subject by the Investigator, or designee. The RAND 36 was an instrument that measured general health issues. Study staff directed subjects to complete the RAND 36 on their own. […] No family members or other individuals were allowed to answer questions or complete the questionnaire for the subject. All questionnaires were completed directly on the written source document pages. The study coordinator reviewed all questionnaires to ensure that there was only one response to each question, each question has been answered and any necessary corrections have been initialed and dated by the Investigator (or designee) or subject, accordingly.

[4] = Six-Day Dose-Escalation Period Only, 40 mg group (escalated to 80 mg BID)
[5] = Six-Day Dose-Escalation Period Only, 80 mg group (escalated to 160 mg BID)
[6] = 40-mg, Visit 1 (prior to dosing)
[7] = 80-mg, Visit 1 (prior to dosing)
[8] = 80-mg, Visit 8 (after 6-day dose escalation)
[9] = 160-mg, Visit 8 (after 6-day dose escalation)

## O=NO [sodium nitrite]
Subjects with PAD [1]; 40 mg BID
  Number of TEAEs by Relationship to Study Drug: Not Related: 10
  Number of TEAEs by Relationship to Study Drug: Possibly Related: 22
  Number of TEAEs by Relationship to Study Drug: Probably Related: 0
  Number of TEAEs by Severity: Mild: 26
  Number of TEAEs by Severity: Moderate: 6
Subjects with PAD [1]; 80 mg BID
  Number of TEAEs by Relationship to Study Drug: Not Related: 9
  Number of TEAEs by Relationship to Study Drug: Possibly Related: 24
  Number of TEAEs by Relationship to Study Drug: Probably Related: 6
  Number of TEAEs by Severity: Mild: 31
  Number of TEAEs by Severity: Moderate: 8
Subjects with PAD [1]; Overall, 40 mg BID
  Number (%) of Subjects with at least one AE: 12(63.2%)
  Number (%) of Subjects with at least one TEAE: 12(63.2%)
  Number of AEs: 32
  Number of SAEs: 0
  Number of TEAEs: 32
Subjects with PAD [1]; Overall, 80 mg BID
  Number (%) of Subjects with at least one AE: 14(7738%)
  Number (%) of Subjects with at least one TEAE: 14(7738%)
  Number of AEs: 40
  Number of SAEs: 0
  Number of TEAEs: 39
Subjects with PAD [1]; [4]
  Number (5) of Subjects with at least one TEAE: 3(15.8%)
  Number of TEAEs: 3
Subjects with PAD [1]; [5]
  Number (5) of Subjects with at least one TEAE: 7(38.9%)
  Number of TEAEs: 11
Subjects with PAD [1]; treated groups overall
  Severe adverse effects: no severe adverse effects were observed
Subjects with PAD [2]; [6]
  ECG Heart Rate: 71.4 +/− 12.7 beats/minute
  QTcB interval: 415.9 ± 49.0 ms
  QTcF interval: 404.8 ± 44.9 ms
Subjects with PAD [2]; 40-mg, Visit 5 (Day 28)
  ECG Heart Rate: 72.2 +/− 14.8 beats/minute
  QTcB interval: 430.1 ± 34.8 ms
  QTcF interval: 417.7 ± 24.0 ms
Subjects with PAD [2]; [7]
  ECG Heart Rate: 62.7 +/− 10.7 beats/minute
  QTcB interval: 422.3 ± 34.0 ms
  QTcF interval: 419.9 ± 30.5 ms
Subjects with PAD [2]; 80-mg, Visit 5 (Day 28)
  ECG Heart Rate: 65.5 +/− 11.9 beats/minute
  QTcB interval: 411.6 ± 49.7 ms
  QTcF interval: 406.2 ± 46.2 ms
Subjects with PAD [2]; [8]
  ECG Heart Rate: 74.3 +/− 10.0 beats/minute
  QTcB interval: 423.2 ± 4.03 ms
  QTcF interval: 409.5 ± 34.3 ms
Subjects with PAD [2]; [9]
  ECG Heart Rate: 64.7 +/− 10.0 beats/minute
  QTcB interval: 427.7 ± 31.9 ms
  QTcF interval: 422.8 ± 27.9 ms
Subjects with PAD [3]
  WIQ assessment in walking distance: no change
  WIQ stair climbing: trend toward improvement
  WIQ walking speed: trend toward improvement
Subjects with PAD [3]; sentence names the 40 mg group
  RAND 36 quality of life assessment: trend toward improvement
